Experiments:
[1] = molecular target: Bcl-2 (Homo sapiens, UniProt P10415); experiment: Bcl-2 binding affinity analysis (fluorescence polarization binding assay)
In short: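 Binding to human Bcl-2 quantified in vitro by a fluorescence polarization assay.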

[2] = molecular target: Bcl-xL (Homo sapiens, UniProt Q07817); experiment: Bcl-xL binding affinity analysis (fluorescence polarization binding assay); parameters: scale not given here
In short: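 In vitro fluorescence polarization binding assay measuring compound binding to human Bcl-xL.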

Chain of Bcl-2 (P10415 whole entry): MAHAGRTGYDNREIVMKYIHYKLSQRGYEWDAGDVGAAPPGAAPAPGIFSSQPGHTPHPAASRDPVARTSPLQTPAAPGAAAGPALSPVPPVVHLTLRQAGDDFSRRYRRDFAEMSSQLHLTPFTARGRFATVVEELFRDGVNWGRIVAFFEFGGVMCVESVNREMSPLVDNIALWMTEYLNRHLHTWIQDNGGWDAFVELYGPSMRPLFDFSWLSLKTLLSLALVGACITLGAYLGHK
Chain of Bcl-xL (Q07817 whole entry): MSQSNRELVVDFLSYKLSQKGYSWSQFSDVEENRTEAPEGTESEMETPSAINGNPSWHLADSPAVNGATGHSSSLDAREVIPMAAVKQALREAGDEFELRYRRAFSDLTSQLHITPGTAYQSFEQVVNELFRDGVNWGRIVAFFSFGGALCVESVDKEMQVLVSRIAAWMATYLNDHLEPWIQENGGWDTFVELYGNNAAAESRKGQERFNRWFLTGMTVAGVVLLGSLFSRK

Row | Structure (SMILES) | Ki [1] [nM] | Bcl-XL binding affinity Ki [2]
1 | C[C@@H]1[C@@H](NC(=O)[C@@H]2[C@H]([C@H](C)O)[C@H](CO)ON2Cc2cccc(CN(CCN(C)C)CCC(C)(C)C)c2)C[C@H]2C[C@@H]1C2(C)C [Compound 203] | < 800 | ♯
2 | C[C@@H]1[C@@H](NC(=O)[C@@H]2[C@H]([C@H](C)O)[C@H](CO)ON2Cc2cccc(CN(CCCc3ccccc3)CCN(C)C)c2)C[C@H]2C[C@@H]1C2(C)C [Compound 205] | < 800 | ♯
3 | CC(C)CCN(CCN(C)C)Cc1cccc(CN2O[C@@H](CO)[C@@H]([C@H](C)O)[C@H]2C(=O)N[C@H]2C[C@H]3C[C@@H]([C@@H]2C)C3(C)C)c1 [Compound 207] | < 800 | ♯
4 | C[C@@H]1[C@@H](NC(=O)[C@@H]2[C@H]([C@H](C)O)[C@H](CO)ON2Cc2cccc(CN(CCc3ccccc3)CCN(C)C)c2)C[C@H]2C[C@@H]1C2(C)C [Compound 209] | < 800 | ♯
5 | C[C@@H]1[C@@H](NC(=O)[C@@H]2[C@H]([C@H](C)O)[C@H](CO)ON2Cc2cccc(CN(CCN(C)C)C3CCCCC3)c2)C[C@H]2C[C@@H]1C2(C)C [Compound 211] | < 800 | ♯
6 | C[C@@H]1[C@@H](NC(=O)[C@@H]2[C@H]([C@H](C)O)[C@H](CO)ON2Cc2cccc(CN(CCN(C)C)CC(C)(C)C)c2)C[C@H]2C[C@@H]1C2(C)C [Compound 213] | < 800 | ♯
7 | C[C@@H]1[C@@H](NC(=O)[C@@H]2[C@H]([C@H](C)O)[C@H](CO)ON2Cc2cccc(-c3cccc(C(=O)NCCN4CCCC4)c3)c2)C[C@H]2C[C@@H]1C2(C)C [Compound 215] | < 800 | ♯
8 | C[C@@H]1[C@@H](NC(=O)[C@@H]2[C@H]([C@H](C)O)[C@H](CO)ON2Cc2cccc(-c3cccc(C(=O)NCCCN(C)C)c3)c2)C[C@H]2C[C@@H]1C2(C)C [Compound 216] | < 800 | ♯
9 | CC(C)NC(=O)c1cccc(-c2cccc(CN3O[C@@H](CO)[C@@H]([C@H](C)O)[C@H]3C(=O)N[C@H]3C[C@H]4C[C@@H]([C@@H]3C)C4(C)C)c2)c1 [Compound 217] | < 800 | ♯
10 | C[C@@H]1[C@@H](NC(=O)[C@@H]2[C@H]([C@H](C)O)[C@H](CO)ON2Cc2cccc(-c3cccc(C(=O)NCCO)c3)c2)C[C@H]2C[C@@H]1C2(C)C [Compound 218] | < 800 | ♯
11 | C[C@@H]1[C@@H](NC(=O)[C@@H]2[C@H]([C@H](C)O)[C@H](CO)ON2Cc2cccc(-c3cccc(C(N)=O)c3)c2)C[C@H]2C[C@@H]1C2(C)C [Compound 219] | < 800 | ♯
12 | CNC(=O)c1cccc(-c2cccc(CN3O[C@@H](CO)[C@@H]([C@H](C)O)[C@H]3C(=O)N[C@H]3C[C@H]4C[C@@H]([C@@H]3C)C4(C)C)c2)c1 [Compound 220] | < 800 | ♯
13 | C[C@H](O)[C@@H]1[C@H](CO)ON(Cc2cccc(CN(CCN(C)C)Cc3ccccc3)c2)[C@@H]1C(=O)NC1C[C@H]2C[C@@H]([C@@H]1C)C2(C)C (some centres unmarked) [Compound 221] | < 800 | ♯
14 | CC(C)CC(CN(C)C)NCc1cccc(CN2O[C@@H](CO)C([C@H](C)O)[C@H]2C(=O)NC2CC3CC([C@@H]2C)C3(C)C)c1 (some centres unmarked) [Compound 223] | < 800 | ♯
15 | C[C@H](O)[C@@H]1[C@H](CO)ON(Cc2cccc(-c3ccc(C(=O)N[C@H]4CCN(C)C4)cc3)c2)[C@@H]1C(=O)NC1C[C@H]2C[C@@H]([C@@H]1C)C2(C)C (some centres unmarked) [Compound 231] | < 800 | ♯
16 | C[C@@H]1[C@@H](NC(=O)[C@@H]2[C@H]([C@H](C)O)[C@H](CO)ON2Cc2cccc(N(CCN(C)C)Cc3ccccc3)c2)C[C@H]2C[C@@H]1C2(C)C [Compound 235] | < 800 | ♯♯
17 | C[C@@H]1[C@@H](NC(=O)[C@@H]2[C@H]([C@H](C)O)[C@H](COC(=O)NCCN3CCOCC3)ON2Cc2cccc(-c3ccc(C(=O)N(C)C)cc3)c2)C[C@H]2C[C@@H]1C2(C)C [Compound 245] | < 800 | ♯
18 | COc1ccc(C(O)C#Cc2cccc(CN3O[C@H](CO)[C@H]([C@@H](C)O)[C@@H]3C(=O)NCCCN(C)c3ccccc3)c2)c(C)c1 (some centres unmarked) [Compound 247] | < 800 | ♯
19 | C[C@@H](O)[C@H]1[C@@H](CO)ON(Cc2cccc(C#CC(O)c3ccc(-c4ccccn4)cc3)c2)[C@H]1C(=O)NCCCN(C)c1ccccc1 (some centres unmarked) [Compound 252] | < 800 | ♯

Row | Structure (SMILES) | Ki [1] [nM] | Bcl-XL binding affinity Ki [2]
20 | C[C@H](O)[C@@H]1[C@H](CO)ON(Cc2cccc(N3CCN(C(=O)OCc4ccccc4)CC3)c2)[C@@H]1C(=O)NC1C[C@H]2C[C@@H]([C@@H]1C)C2(C)C (some centres unmarked) [Compound 253] | < 800 | ♯
21 | C[C@@H]1[C@@H](NC(=O)[C@@H]2[C@H]([C@H](C)O)[C@H](CO)ON2Cc2cccc(N3CCN(C(=O)NCc4ccccc4)CC3)c2)C[C@H]2C[C@@H]1C2(C)C [Compound 260] | < 800 | ♯
22 | C[C@@H]1[C@@H](NC(=O)[C@@H]2[C@H]([C@H](C)O)[C@H](CO)ON2Cc2cccc(N3CCN(C(=S)NCc4ccccc4)CC3)c2)C[C@H]2C[C@@H]1C2(C)C [Compound 263] | < 800 | ♯
23 | C[C@@H]1[C@@H](NC(=O)[C@@H]2[C@H]([C@H](C)O)[C@H](CO)ON2Cc2cccc(N3CCN(C(=S)NCCN4CCOCC4)CC3)c2)C[C@H]2C[C@@H]1C2(C)C [Compound 264] | < 800 | ♯
24 | C[C@@H]1[C@@H](NC(=O)[C@@H]2[C@H]([C@H](C)O)[C@H](CO)ON2Cc2cccc(N3CCN(C(=S)NCCc4ccccc4)CC3)c2)C[C@H]2C[C@@H]1C2(C)C [Compound 266] | < 800 | ♯
25 | COC(=N)c1ccc(-c2cccc(CN3O[C@@H](CO)[C@@H]([C@H](C)O)[C@H]3C(=O)NC3C[C@@H]4CC([C@@H]3C)C4(C)C)c2)cc1 (some centres unmarked) [Compound 270] | < 800 | ♯
26 | C[C@@H]1C(NC(=O)[C@@H]2[C@H]([C@H](C)O)[C@H](CO)ON2Cc2cccc(-c3ccc(NCCCN(C)C)cc3)c2)C[C@@H]2CC1C2(C)C (some centres unmarked) [Compound 272] | < 800 | ♯
27 | C[C@@H]1C(NC(=O)[C@@H]2[C@H]([C@H](C)O)[C@H](CO)ON2Cc2cccc(-c3ccc(NCCN(C)C)cc3)c2)C[C@@H]2CC1C2(C)C (some centres unmarked) [Compound 276] | < 800 | ♯
28 | C[C@H](O)[C@@H]1[C@H](CO)ON(Cc2cccc(-c3ccc(NCCN4CCOCC4)cc3)c2)[C@@H]1C(=O)NC1CC2C[C@@H]([C@@H]1C)C2(C)C (some centres unmarked) [Compound 278] | < 800 | ♯
29 | C[C@@H]1C(NC(=O)[C@@H]2[C@H]([C@H](C)O)[C@H](CO)ON2Cc2cccc(-c3ccc(NC(=O)N(C)CCCN(C)C)cc3)c2)C[C@@H]2CC1C2(C)C (some centres unmarked) [Compound 282] | < 800 | ♯♯
30 | C[C@@H]1C(NC(=O)[C@@H]2[C@H]([C@H](C)O)[C@H](CO)ON2Cc2cccc(-c3ccc(NC(=O)N(C)C)cc3)c2)C[C@@H]2CC1C2(C)C (some centres unmarked) [Compound 283] | < 800 | ♯♯
31 | C[C@@H]1[C@@H](NC(=O)[C@@H]2[C@H]([C@H](C)O)[C@H](CO)ON2Cc2cccc(-c3ccc(C(=O)N(C)C)cc3[N+](=O)[O-])c2)C[C@H]2C[C@@H]1C2(C)C [Compound 285] | < 800 | ♯
32 | C[C@H](O)[C@@H]1[C@H](CO)ON(Cc2cccc(N3CCN(C(=O)N(C)C)CC3)c2)[C@@H]1C(=O)NC1C[C@H]2C[C@@H]([C@@H]1C)C2(C)C (some centres unmarked) [Compound 291] | < 800 | ♯
33 | C[C@@H]1[C@@H](NC(=O)[C@@H]2[C@H]([C@H](C)O)[C@H](CO)ON2Cc2cccc(N3CCN(S(C)(=O)=O)CC3)c2)C[C@H]2C[C@@H]1C2(C)C [Compound 293] | < 800 | ♯
34 | CC(=O)Nc1ccc(-c2cccc(CN3O[C@@H](CO)[C@@H]([C@H](C)O)[C@H]3C(=O)NC3C[C@H]4C[C@@H]([C@@H]3C)C4(C)C)c2)cc1 (some centres unmarked) [Compound 294] | < 800 | ♯
35 | CC(C)/N=C(/NC(C)C)N1CCN(c2cccc(CN3O[C@@H](CO)[C@@H]([C@H](C)O)[C@H]3C(=O)NC3C[C@H]4C[C@@H]([C@@H]3C)C4(C)C)c2)CC1 (some centres unmarked) [Compound 296] | < 800 | ♯
36 | C[C@@H]1[C@@H](NC(=O)[C@@H]2[C@H]([C@H](C)O)[C@H](CO)ON2Cc2cccc(-c3ccc(NS(C)(=O)=O)cc3)c2)C[C@H]2C[C@@H]1C2(C)C [Compound 298] | < 800 | ♯♯
37 | CCCNC(=O)c1ccc(-c2cccc(CN3O[C@@H](CO)[C@@H]([C@H](C)O)[C@H]3C(=O)N[C@H]3C[C@H]4C[C@@H]([C@@H]3C)C4(C)C)c2)cc1 [Compound 299] | < 800 | ♯

From patent publication US7851637B2, “Compounds and methods for inhibiting the interaction of BCL proteins with binding partners” (Infinity Pharmaceuticals, Inc., priority 2004, dated 2010)
